Literature values as cited in patent publication US12594435B2, “Interstitial photodynamic therapy” (Simphotek, Inc., priority 2020, dated 2026).
Read-outs that look alike come from different tables or passages of the source.

Tests used:
tumors in mice = conditions: for Threshold [^1O2]dose: superficial PDT
[1] = for β, k4/k2 / ξ photokinetic parameter / σ, k1/(k7[A]): Table 6, Zhu et. al. 2015, Ong et al 2018
experimental tumours [2] = conditions: Rabbits, Shafirstein et. al., 2018
experimental tumours [3] = conditions: Mice, Shafirstein et. al., 2018
Human prostate = conditions: Davidson et.al., 2009
[4] = Zhu et. al., 2015, labeled [^1O2]rx in the publication
[5] = vascular PDT, Sheng et. al., 2020
[6] = surface PDT, Sheng et. al., 2019
[7] = simulation parameter used in Dosie simulations, Examples 3 and 4
[8] = I-PDT with light dose as dose metric

Compound: benzoporphyrin derivative monoacid ring A [BPD]
- Threshold [^1O2]dose (tumors in mice; Kim et. al. 2017): 0.98 ± 012 (Kim et. al. 2017) mM
- Threshold [^1O2]dose (tumors in mice; [4]): 0.72 ± 0.21 (Zhu et. al., 2015) mM
- Threshold PDT-dose (tumors in mice; surface PDT, Kim et. al., 2017): 58 ± 12 (Kim et. al., 2017) μM J/cm^2
- Threshold Light Dose (tumors in mice; [5]): Approx. 40 (vascular, Sheng et. J/cm^2
- Threshold PDT-dose (tumors in mice; [5]): 7.5 (vascular, Sheng et. al., μM J/cm^2
- ε, PS extinction coefficient ([1]; 690 nm): BPD (690 nm): 0.0783 cm^−1μM^−1
- β, k4/k2 [1]: BPD: 11.9 μM
- ξ photokinetic parameter [1]: BPD: 51.0 × 10^−3 cm^2mW^−1s^−1
- σ, k1/(k7[A]) [1]: BPD: 1.7 × 10^−5 μM^−1

Compound: Photofrin
- Threshold [^1O2]dose (tumors in mice; Qiu et. al., 2016): > 1.0 (Qiu et. al., 2016) mM
- Threshold [^1O2]dose (tumors in mice; [4]): 0.56 ± 0.26 (Zhu et. al., 2015) mM
- Threshold Light Dose (tumors in mice; [6]): Approx. 100 (Sheng et. al., 2019) J/cm^2
- Threshold PDT-dose (tumors in mice; [6]): 439 (Sheng et. al., 2019) μM J/cm^2
- ε, PS extinction coefficient ([1]; 630 nm): Photofrin (630 nm): 0.0035 cm^−1μM^−1
- β, k4/k2 [1]: Photofrin: 11.9 μM
- ξ photokinetic parameter [1]: Photofrin: 3.7 × 10^−3 cm^2mW^−1s^−1
- σ, k1/(k7[A]) [1]: Photofrin: 7.6 × 10^−5 μM^−1
- β [1, 7]: 11.9
- δ, low concentration correction [1, 7]: 33
- ξ [1, 7]: 3.7E-03
- σ [1, 7]: 7.6E-05
- Threshold Fluence Rate φT (experimental tumours [2]; [8]): 16.5 (Shafirstein et. al., 2018) mW/cm^2
- Threshold Light Dose (experimental tumours [2]; I-PDT): ≥45 (Shafirstein et. al., 2018) J/cm^2
- Threshold Fluence Rate φT (experimental tumours [3]; [8]): 8.4 (Shafirstein et. al., 2018) mW/cm^2
- Threshold Light Dose (experimental tumours [3]; I-PDT): ≥45 (Shafirstein et. al., 2018) J/cm^2

Compound: Oc1cccc(-c2c3nc(c(-c4cccc(O)c4)c4ccc([nH]4)c(-c4cccc(O)c4)c4nc(c(-c5cccc(O)c5)c5ccc2[nH]5)CC4)C=C3)c1 [mTHPC]
- ε, PS extinction coefficient ([1]; 650 nm): mTHPC (650 nm): 0.048 cm^−1μM^−1
- β, k4/k2 [1]: mTHPC: 8.7 μM
- ξ photokinetic parameter [1]: mTHPC: 30.0 × 10^−3 cm^2mW^−1s^−1
- σ, k1/(k7[A]) [1]: mTHPC: 2.97 × 10^−5 μM^−1

Compound: CC[C@H]1c2cc3[n-]c4c(c3C)C(=O)[C@H](C(=O)OC)c4c3nc(cc4[n-]c(cc(n2)[C@@H]1C)c(C(C)=O)c4C)[C@@H](C)[C@@H]3CCC(=O)O.[Pd+2] [Tookad]
- Threshold Light Dose (Human prostate): >23 (Davidson et.al., 2009) J/cm^2
- β, k4/k2 [1]: Tookad: 11.9 μM
- ξ photokinetic parameter [1]: Tookad: 122 × 10^−3 cm^2mW^−1s^−1
- σ, k1/(k7[A]) [1]: Tookad: 2.6 × 10^−5 μM^−1

Compound: 2-(1-Hexyloxyethyl)-2-devinyl pyropheophorbide [HPPH]
- Threshold [^1O2]dose (tumors in mice; Penjweini et. al., 2016): 0.98 ± 0.11 (Penjweini et. al., mM
- Threshold PDT-dose (tumors in mice; surface PDT, Penjweini et. al., 2016): 52.62 ± 14.9 (Penjweini et. al., μM J/cm^2
